Assay results taken from US11160798B2, “Neuroprotective CB2 receptor agonists” (THE CLEVELAND CLINIC FOUNDATION, priority 2012, dated 2021).

Columns and labels:
[1] = molecular target: rCB1 (Rattus norvegicus, UniProt P20272); details: cited from earlier work
[2] = system: IL-1β; experiment: IL-1β protein expression in hippocampal CA1 area (immunoblotting); assay type: in vivo, rat; details: Aβ1-40-injected rats, 15 mg/kg i.p. daily for 14 days
Method: (§1) Animals were divided into several groups (40-50 rats per group). The Aβ1-40 group received bilateral intracerebral microinjection of Aβ1-40 fibrils once and saline intraperitoneally (i.p.) daily for 14 days. The Aβ1-40+MDA7 group received bilateral intracerebral microinjection of Aβ1-40 fibrils once and 15 mg/kg MDA7 i.p. daily for 14 days. Other cohorts received smaller doses of MDA7 (5 mg/kg or 1.5 mg/kg) i.p. daily for 14 days to determine the dose-response characteristics for MDA7. In other groups, AM630 (a CB2 antagonist) 5 mg/kg i.p. was administered daily for 14 days either alone (Aβ1-40+AM630 group) or 15 min prior to MDA7 (15 mg/kg i.p.) administration (Aβ1-40+MDA7+AM630 group) to rats injected with β1-40 fibrils. […]
Protein extraction and immunoblotting. […] Protein concentrations were determined by using the Bio-Rad (Hercules, Calif.) protein assay kit.
The samples were treated with SDS sample buffer at 95° C. for 5 min, loaded on a 7.5% SDS-polyacrylamide, gel, and blotted to a nitrocellulose membrane. […] The immunoreactivity was detected using enhanced chemiluminescence (ECL Advance Kit; Amersham Biosciences). The intensity of the bands was captured digitally and analyzed quantitatively with ImageJ software. […]

[3] = system: CD11b; experiment: CD11b immunoreactivity in hippocampal CA1 area (immunostaining, immunoblotting); assay type: in vivo, rat
Method: (§2) Animals were divided into several groups ([…]). The Aβ1-40 group received bilateral intracerebral microinjection of Aβ1-40 fibrils once and saline intraperitoneally (i.p.) daily for 14 days. The Aβ1-40+MDA7 group received bilateral intracerebral microinjection of Aβ1-40 fibrils once and 15 mg/kg MDA7 i.p. daily for 14 days. Other cohorts received smaller doses of MDA7 (5 mg/kg or 1.5 mg/kg) i.p. daily for 14 days to determine the dose-response characteristics for MDA7. In other groups, AM630 (a CB2 antagonist) 5 mg/kg i.p. was administered daily for 14 days either alone (Aβ1-40+AM630 group) or 15 min prior to MDA7 (15 mg/kg i.p.) administration (Aβ1-40+MDA7+AM630 group) to rats injected with β1-40 fibrils. MDA7 group and control group received bilateral intracerebral microinjection of artificial cerebrospinal fluid (130 mM NaCl, 2.6 mM KCl. 4.3 mM MgCl2 and 1.8 mM CaCl2) once and 15 mg/kg MDA7 or saline i.p. daily for 14 days, respectively. Intraperitoneal administration of AM630, MDA7 or saline started on the same day after intracerebral microinjection of Aβ1-40. All drugs were prepared coded. Decoding was performed at the end of all experiments.
(§3) Microinjection of amyloid fibrils into the hippocampal CA1 area. Rats were anesthetized with sodium pentobarbital (45 mg/kg i.p.) and restrained in a stereotaxic apparatus. Aβ1-40 fibrils were formed as described previously. […]
(§4) Immunostaining. […] Three to six sections from each rat were randomly selected and were analyzed using Leica DMLB fluorescence microscope (Leica Microsystems Wetzlar GmbH, Germany) by one investigator, who was blinded to the origin of tissue being examined. Images were quantified using MCID Core software version 7.0 (InterFocus Imaging Ltd, Cambridge, England). […]

[4] = system: Aβ1-40; experiment: Clearance of Aβ1-40 injected in the hippocampal CA1 area (immunofluorescence); assay type: in vivo, rat; details: Aβ1-40-injected rats, 15 mg/kg per day for 14 days; hippocampal CA1
Method: as §2, §3
Immunostaining. […] Three to six sections from each rat were randomly selected and were analyzed using Leica DMLB fluorescence microscope (Leica Microsystems Wetzlar GmbH, Germany) by one investigator, who was blinded to the origin of tissue being examined. Images were quantified using MCID Core software version 7.0 (InterFocus Imaging Ltd, Cambridge, England).

[5] = molecular target: hCB1 (Homo sapiens, UniProt P21554); details: cited from earlier work
Sequence of hCB1 (P21554 whole entry): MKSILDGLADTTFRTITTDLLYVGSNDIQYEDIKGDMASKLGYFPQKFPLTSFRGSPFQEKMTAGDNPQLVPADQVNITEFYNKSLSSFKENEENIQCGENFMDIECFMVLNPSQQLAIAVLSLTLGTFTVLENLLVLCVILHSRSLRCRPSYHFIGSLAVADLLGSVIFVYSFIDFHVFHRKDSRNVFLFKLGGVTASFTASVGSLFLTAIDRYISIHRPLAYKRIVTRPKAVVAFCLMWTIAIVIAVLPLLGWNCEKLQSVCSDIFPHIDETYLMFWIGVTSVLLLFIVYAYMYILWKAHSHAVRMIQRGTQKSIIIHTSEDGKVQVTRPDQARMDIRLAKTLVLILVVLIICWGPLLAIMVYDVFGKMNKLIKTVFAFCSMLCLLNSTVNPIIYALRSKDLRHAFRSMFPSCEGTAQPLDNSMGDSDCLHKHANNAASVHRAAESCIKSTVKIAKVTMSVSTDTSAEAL

[6] = system: CB2 receptor; experiment: CB2 receptor expression in hippocampal CA1 area (immunostaining, immunoblotting); assay type: in vivo, rat; details: Aβ1-40-injected rats
Method: as §1, with “fibrils. MDA7 group and control group received bilateral intracerebral microinjection of artificial cerebrospinal fluid (130 mM NaCl, 2.6 mM KCl. 4.3 mM MgCl2 and 1.8 mM CaCl2) once and 15 mg/kg MDA7 or saline i.p. daily for 14 days, respectively.” for “fibrils.”
as §4

Sequence of rCB1 (P20272 whole entry): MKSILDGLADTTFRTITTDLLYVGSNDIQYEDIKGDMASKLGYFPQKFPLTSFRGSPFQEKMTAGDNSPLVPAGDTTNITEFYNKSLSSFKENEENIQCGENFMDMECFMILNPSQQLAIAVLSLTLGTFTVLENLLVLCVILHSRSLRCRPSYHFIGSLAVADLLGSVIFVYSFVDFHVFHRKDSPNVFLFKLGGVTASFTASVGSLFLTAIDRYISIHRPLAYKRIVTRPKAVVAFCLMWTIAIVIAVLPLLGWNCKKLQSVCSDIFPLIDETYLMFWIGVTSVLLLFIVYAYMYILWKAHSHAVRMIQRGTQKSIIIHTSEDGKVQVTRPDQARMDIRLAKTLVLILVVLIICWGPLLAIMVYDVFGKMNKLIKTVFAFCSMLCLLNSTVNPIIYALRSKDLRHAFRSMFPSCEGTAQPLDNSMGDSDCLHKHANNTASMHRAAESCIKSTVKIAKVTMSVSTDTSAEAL

## CC1(Cc2ccccc2)COc2cc(C(=O)N3CCCCC3)ccc21 (stereo not drawn) [MDA7, 3-benzyl-3-methyl-2,3-dihydrobenzofuran-6-carboxylic acid-piperidine amide]
[1]
  EC50 at rCB1: not active
[2]
  IL-1β protein expression (immunoblot): significantly attenuated
[3]; Aβ1-40-injected rats, i.p. for 14 days, vs saline, hippocampal CA1
  CD11b immunofluorescence intensity: significantly less
[3]; Aβ-injected rats, 14 days i.p. (15 mg/kg), vs saline, hippocampal CA1
  CD11b protein expression (immunoblot): significantly attenuated
[3]; rats without Aβ1-40, compared to control rats
  CD11B expression, treatment alone: no significant effect
[4]
  clearance of injected Aβ1-40: induced removal of Aβ1-40
[5]
  EC50 at hCB1: not active
[6]; 15 mg/kg i.p. daily for 14 days
  CB2 receptor expression (immunoblotting): significantly reversed
[6]; 15 mg/kg i.p. for 14 days, vs saline
  CB2 expression (immunofluorescence): reduced CB2 expression
